Paper PMC7397269, “Synthesis and Evaluation of New Coumarin Derivatives as Antioxidant, Antimicrobial, and Anti-Inflammatory Agents” (Molecules, 2020)
Converted amounts (≈) assume the structure as drawn.

How the values were obtained:
[1] = test system: Saccharomyces cerevisiae local isolate; assay: Agar well diffusion, S. cerevisiae; format: cell-based; details: well diffusion, 100 μL of 10 mg/mL in DMSO, S. cerevisiae, read-out: diameter of inhibition zone, SC
Excerpt: (§1) The new molecules were individually tested for their antimicrobial activity in vitro against standard bacteria strains from the American Type Culture Collection (ATCC), namely, Staphylococcus aureus ATCC 29213, Bacillus subtilis ATCC 6633, Bacillus megaterium ATCC 9885 (Gram-positive), Escherichia coli ATCC 2592, and Pseudomonas aeruginosa ATCC 27,953 (Gram-negative). The compounds were also microbiologically tested against locally isolated Saccharomyces cerevisiae (yeast) and the standard Agricultural Research Service Culture Collection (NRRL) strain of the yeast-like pathogenic fungus Candida albicans NRRL Y-477. Primary screening was conducted using the agar well diffusion method using nutrient agar (NA) medium and Sabourand dextrose agar (SDA) medium for the tested pathological bacteria and yeast, respectively. […].
(§2) Antimicrobial tests were conducted via the agar well diffusion method using 100 μL of suspension containing 1 × 10^8 CFU/mL pathological tested bacteria and 1 × 10^6 CFU/mL yeast spread on NA and SDA, respectively. After the media cooled and solidified, wells (10 mm in diameter) were made in the solidified agar and loaded with 100 μL of the tested compound solution prepared by dissolving 10 mg of the chemical compound in 1 mL dimethyl sulfoxide (DMSO). The inoculated plates were then incubated for 24 h at 37 °C for bacteria and yeast growth. DMSO served as negative control. Ciprofloxacin (10 mg/mL) and ketoconazole (10 mg/mL) were used as standards for antibacterial and antifungal activity, respectively. After incubation, antimicrobial activity was evaluated by measuring the zone of inhibition against the test organisms and compared with that of the standard. Antimicrobial activities were expressed as the diameter of the inhibition zone (IZ) in mm. The experiment was carried out in triplicate and the average zone of inhibition was calculated.

[2] = test system: Candida albicans NRRL Y-477; assay: MIC, two-fold serial dilution, C. albicans; format: cell-based; details: NRRLY477, read-out: Minimum inhibitory concentration, CA
Excerpt: as §1
(§3) The bacteriostatic activity of the active compounds (having IZ > 16 mm) was then evaluated using the two-fold serial dilution technique. Two-fold serial dilutions of the tested compounds solutions were prepared using the proper nutrient broth to reach final concentrations of 1000, 500, 250, and 125 μg/mL. The tubes were then inoculated with the test microorganisms grown in their suitable broth at 37 °C for 24 h (1 × 10^8 CFU/mL for bacteria and 1 × 10^6 CFU/mL of yeast), 0.1 mL of the above inoculum was administered per 5 mL, and the tubes were incubated at 37 °C for 24 h. The lowest concentration showing no growth was taken as the MIC.

[3] = test system: Staphylococcus aureus ATCC 29213; assay: Agar well diffusion, S. aureus; format: cell-based; details: ATCC29213, 100 μL of 10 mg/mL in DMSO, read-out: diameter of inhibition zone, SA
Excerpt: as §1, §2

[4] = test system: Bacillus megaterium ATCC 9885; assay: MIC, two-fold serial dilution, B. megaterium; format: cell-based; details: Priestia megaterium, ATCC9885, read-out: Minimum inhibitory concentration, BM
Excerpt: as §1, §3

[5] = test system: Bacillus megaterium ATCC 9885; assay: Agar well diffusion, B. megaterium; format: cell-based; details: Priestia megaterium, ATCC9885, 100 μL of 10 mg/mL in DMSO, read-out: diameter of inhibition zone, BM
Excerpt: as §1, §2

[6] = test system: Pseudomonas aeruginosa ATCC 27,953; assay: Agar well diffusion, P. aeruginosa; format: cell-based; details: ATCC27, 100 μL of 10 mg/mL in DMSO, read-out: diameter of inhibition zone, PA
Excerpt: as §1, §2

[7] = test system: Escherichia coli ATCC 2592; assay: MIC, two-fold serial dilution, E. coli; format: cell-based; details: ATCC2592, read-out: Minimum inhibitory concentration, EC
Excerpt: as §1, §3

[8] = test system: Staphylococcus aureus ATCC 29213; assay: MIC, two-fold serial dilution, S. aureus; format: cell-based; details: ATCC29213, read-out: Minimum inhibitory concentration, SA
Excerpt: as §1, §3

[9] = test system: Pseudomonas aeruginosa ATCC 27,953; assay: MIC, two-fold serial dilution, P. aeruginosa; format: cell-based; details: ATCC27, read-out: Minimum inhibitory concentration, PA
Excerpt: as §1, §3

[10] = test system: Bacillus subtilis ATCC 6633; assay: Agar well diffusion, B. subtilis; format: cell-based; details: ATCC6633, 100 μL of 10 mg/mL in DMSO, read-out: diameter of inhibition zone, BS
Excerpt: as §1, §2

[11] = test system: Bacillus subtilis ATCC 6633; assay: MIC, two-fold serial dilution, B. subtilis; format: cell-based; details: ATCC6633, read-out: Minimum inhibitory concentration, BS
Excerpt: as §1, §3

[12] = test system: Saccharomyces cerevisiae local isolate; assay: MIC, two-fold serial dilution, S. cerevisiae; format: cell-based; details: two-fold serial dilution, S. cerevisiae, read-out: Minimum inhibitory concentration, SC
Excerpt: as §1, §3

[13] = test system: Candida albicans NRRL Y-477; assay: Agar well diffusion, C. albicans; format: cell-based; details: NRRLY477, 100 μL of 10 mg/mL in DMSO, read-out: diameter of inhibition zone, CA
Excerpt: as §1, §2

[14] = DPPH antioxidant assay (radical scavenging); format: biochemical; details: mean ± SD (n = 3)
Procedure: The antioxidant effects of the synthesised compounds were assessed using the 2,2-diphenyl-1-picrylhydrazyl (DPPH) antioxidant assay. Table 1 summarises the antioxidant effects of the test samples and ascorbic acid except for compound 5b because it was produced in poor yield.
The radical scavenging activity of the synthesised compounds was measured using the DPPH microplate-based method. The absorbance was measured using a microplate/cuvette reader (Spectramax M5, Molecular Devices, San Jose, CA, USA). Reference standard ascorbic acid was utilised as the positive control for this assay. Test samples were prepared at a starting concentration of 200 μg/mL after mixing with 100 μL of 0.2 mM DPPH methanolic solution. […] Samples were incubated with DPPH in the dark for 30 min at room temperature (25 °C). The methanolic DPPH solution was prepared daily and stored in a flask covered with aluminium foil. DPPH radicals have an absorption maximum (λmax) at 515 nm, at which the absorbance values were measured and converted into a percentage of antioxidant activity.
The methanolic DPPH solution without antioxidants was used as a control, and samples in methanol alone served as a background control. IC50 was determined using GraphPad Prism 7 (GraphPad Software Inc., San Diego, CA, USA). The percent inhibition was calculated using the following Equation (1):(1) % Inhibition=100−Sample Absorbance −Sample background Absorbance/DPPH only Absorbance×100
The assay was carried out in triplicate and performed as much as possible in an area protected against light. The data points are presented as the mean ± standard deviation (SD, n = 3).

[15] = test system: Escherichia coli ATCC 2592; assay: Agar well diffusion, E. coli; format: cell-based; details: ATCC2592, 100 μL of 10 mg/mL in DMSO, read-out: diameter of inhibition zone, EC
Excerpt: as §1, §2

trypsin = assay: Proteinase-inhibitory activity; format: biochemical; details: 250 µg/mL; mean ± SD (n = 3)
Procedure: The newly synthesised compounds were individually tested for their in vitro anti-inflammatory activity against proteinase enzyme. […] This test was performed at the Pharmacology Department, Medical Research Division, National Research Centre, Cairo, Egypt. Furthermore, compounds 2–8 were evaluated for their COX1/COX2 inhibitory activities.
The test was performed according to El-Serwy et al. with minor modifications. The reaction mixture (2 mL) contained 0.06 mg trypsin, 20 mM Tris HCl buffer (pH 7.4), and 1 mL test sample (250 µg/mL for each compound). After incubating for 5 min, 1 mL of 0.8% (w/v) casein was added. The mixture was incubated for an additional 20 min. The reaction was arrested by adding 1 mL of 10% perchloric acid. The cloudy suspension was centrifuged, and the absorbance of the supernatant was read at 280 nm. Reference standard aspirin was used as the positive control. The experiment was performed in triplicate. The percent inhibition of protein denaturation was calculated using the following Equation (2):(2) % Inhibition=100−A control −A test/A control×100 where Acontrol and Atest represent the absorbance of the control reaction without and with the sample, respectively.

tested microorganisms = assay: MIC, summary over the tested microorganisms; format: cell-based; details: two-fold serial dilution; read-out: MIC against one or more tested microorganisms
Excerpt: as §1, §3

| Structure (SMILES) | zone of inhibition at 10000 µg/mL [1] [mm] | MIC [2] [µg/mL] | zone of inhibition at 10000 µg/mL [3] [mm] | MIC [4] [µg/mL] | melting point [°C] | zone of inhibition at 10000 µg/mL [5] [mm] | zone of inhibition at 10000 µg/mL [6] [mm] | MIC [7] [µg/mL] | MIC [8] [µg/mL] | MIC [9] [µg/mL] | zone of inhibition at 10000 µg/mL [10] [mm] | MIC [11] [µg/mL] | MIC [12] [µg/mL] | zone of inhibition at 10000 µg/mL [13] [mm] | IC50 [14] | zone of inhibition at 10000 µg/mL [15] [mm] | % Inhibition (proteinase) (trypsin) [%] | MIC (tested microorganisms) [µg/mL] |
| --- | --- | --- | --- | --- | --- | --- | --- | --- | --- | --- | --- | --- | --- | --- | --- | --- | --- | --- |
| Cc1ccc2oc(=O)c(S(=O)(=O)Nc3ccc(C(=O)/C=C/c4ccc([N+](=O)[O-])cc4)cc3)c(O)c2c1 [9b, (E)-4-Hydroxy-6-methyl-N-(4-(3-(4-nitrophenyl)acryloyl)phenyl)-2-oxo-2H-chromene-3-sulfonamide] | 25 | 500 (≈ 987 µM) | 22 | 500 (≈ 987 µM) | 220 | 25 | 26 | 250 (≈ 494 µM) | 500 (≈ 987 µM) | 250 (≈ 494 µM) | 24 | 500 (≈ 987 µM) | 500 (≈ 987 µM) | 23 | — ((—): inactive (IC50 > 200 μg/mL)) | 26 | – | – |
| O=C(/C=C/c1ccc(Cl)cc1)c1ccc(NS(=O)(=O)c2c(O)c3cc(Cl)ccc3oc2=O)cc1 [9c, (E)-6-Chloro-N-(4-(3-(4-chlorophenyl)acryloyl)phenyl)-4-hydroxy-2-oxo-2H-chromene-3-sulfonamide] | 31 to 32 | 125 (≈ 242 µM) | 28 | 250 (≈ 484 µM) | 157 to 159 | 30 | 30 | 250 (≈ 484 µM) | 250 (≈ 484 µM) | 250 (≈ 484 µM) | 29 | 250 (≈ 484 µM) | 125 (≈ 242 µM) | 30 | — ((—): inactive (IC50 > 200 μg/mL)) | 30 | 17.6 ± 6.86 | 125 (≈ 242 µM) |
